Measured values reported in patent US6342516B1, “Phenylazole compounds, process for producing the same and drugs for hyperlipemia” (Nippon Soda Co., Ltd., priority 1998, dated 2002).

Columns and labels:
[1] = test system: Lipid peroxidation activity in rat liver microsome; assay: Effect on lipid peroxidation in vitro (rat liver microsome, thiobarbituric acid method); assay type: biochemical; conditions: rat liver microsomes, 500 μM cystein and 5 μM ferrous(II) sulfate, malonaldehyde by thiobarbituric acid method; read-out: Lipid Antiperoxidation Activity 50% Inhibition Concentration (IC50)
Method: Pharmacological Test Example 2: Effect on lipid peroxidation in vitro
Lipid peroxidation activity in rat liver microsome was determined according to the method of Malvy et al. (Malvy et al., Biochemical and Biophysical Research Communications, 95, 734-737 (1980)). More particularly, 500 μM cystein and 5 μM ferrous(II) sulfate were incubated with rat liver microsomes, and the amount of malonaldehyde produced due to the decomposition of lipid peroxide was determined according to thiobarbituric acid method. The concentration of the compounds required to inhibit the formation of lipid peroxide by 50% (IC50) was calculated.

[2] = test system: cholesterol-fed hamsters; assay: Effect on serum lipids of cholesterol-fed hamsters (serum total cholesterol and triglyceride reduction rate); assay type: in vivo; conditions: cholesterol-fed Syrian hamsters, oral once a day for 5 days
Method: Pharmacological Test Example 1: Effect on serum lipids of cholesterol-fed hamsters
Syrian hamsters (Std:Syrian, Male, 4 weeks old) were freely fed with chow containing 1% cholesterol and 10% coconut oil for 3 weeks ad libitum.
At the last week of feeding, each of the test compounds was dissolved or suspended in either 0.1% hydrochloric acid solution or 1% polyethylene-hydrogenated castor oil (NIKKOL HCO-60) solution and was orally administrated to hamsters once a day for 5 days. For the hamsters of the control group, only the solvent was orally administered. Then, blood was collected from the abdominal vein under the condition of anesthesia with pentobarbital at 2-4 hours after the last administration, and the serum in the blood was separated. The serum total cholesterol value and the serum triglyceride value were determined by using autobiochemical analyzer with analizing kits, and reduction rate of the serum lipids was determined according to the equation indicated below based on the analyzed values for respective hamster groups.
Serum lipids reduction rate (%)=(Amount of serum lipids of the control group−Amount of serum lipids of the group administrated with the test compound)/Amount of serum lipids of the control group×100

[3] = test system: carbon tetrachloride induced liver damage model in rats; assay: Carbon tetrachloride induced liver damage model in rats (lipid peroxide in liver; serum GOT, GPT); assay type: in vivo, rats (SD-strain, male); conditions: for Antioxidation Activity of Lipid: Mass of lipid peroxide / Antioxidation Activity of Lipid: Prevention Rate: liver at 24 hours; for Preventive Activity on Liver Disorder: GOT / Preventive Activity on Liver Disorder: GOT Prevention Rate / Preventive Activity on Liver Disorder: GPT / Preventive Activity on Liver Disorder: GPT Prevention Rate: serum
Method: Pharmacological Test Example 3: Effect on lipid peroxidation […] Effect of the compounds of the present invention on the produced lipid peroxide in liver was examined on carbon tetrachloride induced liver damage model in rats. Briefly, providing 5 SD-strain male rats (6 weeks old) for each group, carbon tetrachloride at the rate of 1 ml/kg or 2 ml/kg (0.5 ml/kg or 1 ml/kg based on carbon tetrachloride) was orally administered to the rats together with the equivalent dose of olive oil. At 24 hours after the administration of carbon tetrachloride, their livers were excised, and the produced amount of lipid peroxide in liver was determined by thiobarbituric acid method according to Uchiyama's method (Uchiyama, M., et al., Analytical biochemistry, 86, 271-278 (1978)). In parallel, as the indicator for liver disorder due to carbon tetrachloride, serum enzyme activity (GOT, GPT) was measured. Then each of the test compounds, which was either dissolved or suspended in either 0.1% hydrochloric acid solution or olive oil, was orally administered to the rats 3 times at 1 before and, 3 and 6 hours after the administration of carbon tetrachloride. For the rats of normal group and control groups, the solvent was orally administered. Based on the measured values for each groups, the inhibitory rate of producing peroxidized lipids and the inhibitory rate of causing liver disorder were calculated according to the following equation. Inhibitory rate of producing lipid peroxide (%)=[1−(Produced amount of lipid peroxide in the test compound group−Produced amount of lipid peroxide in the normal rat group)/(Produced amount of lipid peroxide in the control group−Produced amount of lipid peroxide in the normal rat group)]×100 Liver disorder preventing rate (%)=[1−(GOT amount of GPT amount in the test compound group−GOT amount or GPT amount in the normal rat group)/(GOT amount or GPT amount in the control group−GOT amount or GPT amount in the normal rat group)]×100 The results are presented in Table 8.

[4] = test system: rats (male SD-strain); conditions: rat, in vivo, 100 mg/kg/day
Method: Pharmacological Test Example 4: Repeated Oral Administration Toxicity
The Compound with No. 3-1 was suspended in 1% polyethylene-hardened castor oil (NIKKOL HCO-60) solution, and the suspension was orally administered to rats (male SD-strain), 6 rats per group, at a rate of 100 mg/kg/day for 7 days.

[5] = CCl4: 1 ml/kg, dose 10 mg/kg oral 3 times
[6] = CCl4: 0.5 ml/kg, dose 100 mg/kg oral 3 times

Q: How did the IC50 [1] turn out when Cc1c(C)c2c(c(C)c1O)CC(C)(CCCCC(=O)Nc1ccc(-n3ccnc3)cc1)O2 (racemic) [3-12] was run?
A: 2500 nM

Q: Which “Serum lipids reduction rate comparing to Control group (%), Means of 3 animals: Total cholesterol” value ([2]; dose 25 mg/kg) does the source give for Cc1c(C)c2c(c(C)c1OC(=O)c1ccccc1)CCC(C)(C(=O)Nc1ccc(-n3ccnc3)cc1)O2 (racemic) [3-14] here?
A: 22%

Q: What about the “Serum lipids reduction rate comparing to Control group (%), Means of 3 animals: Triglyceride” value ([2]; dose 25 mg/kg) of the same molecule?
A: 31%

Q: What about the IC50 [1] of the same molecule?
A: 2600 nM

Q: With Cc1c(C)c2c(c(C)c1O)CCC(C)(CC(=O)Nc1ccc(-n3ccnc3)cc1)O2 (racemic) [3-4] as the molecule, how does the “Serum lipids reduction rate comparing to Control group (%), Means of 3 animals: Total cholesterol” value ([2]; dose 25 mg/kg) read?
A: 37%

Q: And the “Serum lipids reduction rate comparing to Control group (%), Means of 3 animals: Triglyceride” value ([2]; dose 25 mg/kg)?
A: 80%

Q: What about the IC50 [1] of the same molecule?
A: 2300 nM

Q: With Cc1c(C)c2c(c(C)c1O)CC(C)(C(=O)Nc1ccc(-n3ccnc3)cc1)O2 (racemic) [3-9] as the molecule, how does the “Serum lipids reduction rate comparing to Control group (%), Means of 3 animals: Total cholesterol” value ([2]; dose 25 mg/kg) read?
A: 38%

Q: And the “Serum lipids reduction rate comparing to Control group (%), Means of 3 animals: Triglyceride” value ([2]; dose 25 mg/kg)?
A: 49%

Q: And the IC50 [1]?
A: 1900 nM

Q: For Cc1c(C)c2c(c(C)c1O)CC(C)(CCC(=O)Nc1ccc(-n3ccnc3)cc1)O2 (racemic) [3-10], which “Serum lipids reduction rate comparing to Control group (%), Means of 3 animals: Total cholesterol” value ([2]; dose 25 mg/kg) is on record?
A: 35%

Q: And the “Serum lipids reduction rate comparing to Control group (%), Means of 3 animals: Triglyceride” value ([2]; dose 25 mg/kg)?
A: 51%

Q: What about the IC50 [1] of the same molecule?
A: 2100 nM

Q: With Cc1c(C)c2c(c(C)c1O)CC(C)(C=CC=CC(=O)Nc1ccc(-n3ccnc3)cc1)O2 (racemic) [3-16] as the molecule, how does the IC50 [1] read?
A: 2100 nM

Q: With Cc1c(C)c2c(c(C)c1O)CC(C)(C=CC(=O)Nc1ccc(-n3ccnc3)cc1)O2 (racemic) [3-15] as the molecule, how does the “Serum lipids reduction rate comparing to Control group (%), Means of 3 animals: Total cholesterol” value ([2]; dose 25 mg/kg) read?
A: 26%

Q: And the “Serum lipids reduction rate comparing to Control group (%), Means of 3 animals: Triglyceride” value ([2]; dose 25 mg/kg)?
A: 30%

Q: And the IC50 [1]?
A: 920 nM

Q: With Cc1c(C)c2c(c(C)c1O)CCC(C)(C(=O)Nc1ccc(-c3ccn[nH]3)cc1)O2 (racemic) [Compound No. 3-25, (±)-(6-hydroxy-2,5,7,8-tetramethylchroman-2-yl)-N-[4-(pyrrazol-5-yl)phenyl]carboxamide] as the molecule, how does the IC50 [1] read?
A: 490 nM

Q: With CC(=O)Oc1c(C)c(C)c2c(c1C)CC(C)(C(=O)Nc1ccc(-c3ccn[nH]3)cc1)O2 (racemic) [3-19] as the molecule, how does the IC50 [1] read?
A: 420 nM

Q: How did the IC50 [1] turn out when Cc1c(C)c2c(c(C)c1O)CCC(C)(C(=O)NCCCCCC(=O)Nc1ccc(-n3ccnc3)cc1)O2 (racemic) [3-8] was run?
A: 3800 nM

Q: Which “Serum lipids reduction rate comparing to Control group (%), Means of 3 animals: Total cholesterol” value ([2]; dose 25 mg/kg) does the source give for CC1=C(C)C(=O)C(C(CCCc2ccccc2)CCC(=O)Nc2ccc(-n3ccnc3)cc2)=C(C)C1=O (centres unmarked) [Compound No. 3-28, N-[4-(imidazol-1-yl)phenyl]-7-phenyl-4-(3,5,6-trimethyl-1,4-benzoquinon-2-yl)heptanamide] here?
A: 29%

Q: And the “Serum lipids reduction rate comparing to Control group (%), Means of 3 animals: Triglyceride” value ([2]; dose 25 mg/kg)?
A: 23%

Q: And the IC50 [1]?
A: 3300 nM

Q: What about the “Antioxidation Activity of Lipid: Mass of lipid peroxide” value [3, 5] of the same molecule?
A: 5.781 A535nm/g lever

Q: And the “Antioxidation Activity of Lipid: Prevention Rate” value [3, 5]?
A: 61%

Q: And the “Preventive Activity on Liver Disorder: GOT” value [3, 5]?
A: 269 IU/L

Q: And the “Preventive Activity on Liver Disorder: GOT Prevention Rate” value [3, 5]?
A: 76%

Q: What about the “Preventive Activity on Liver Disorder: GPT” value [3, 5] of the same molecule?
A: 82 IU/L

Q: What about the “Preventive Activity on Liver Disorder: GPT Prevention Rate” value [3, 5] of the same molecule?
A: 82%

Q: What does the source list for Cc1c(C)c2c(c(C)c1O)CCC(C)(C(=O)Nc1ccc(-n3ccnc3)cc1)O2 (racemic) [Compound No. 3-1, (±)-(6-Hydroxy-2,5,7,8-tetramethylchroman-2-yl)-N-[4-(imidazol-1-yl)phenyl]carboxamide]?
A: Serum lipids reduction rate comparing to Control group (%), Means of 3 animals: Total cholesterol ([2]; dose 25 mg/kg): 40%; Serum lipids reduction rate comparing to Control group (%), Means of 3 animals: Triglyceride ([2]; dose 25 mg/kg): 62%; IC50 [1]: 2700 nM; Antioxidation Activity of Lipid: Mass of lipid peroxide [3, 6]: 2.361 A535nm/g lever; Antioxidation Activity of Lipid: Prevention Rate [3, 6]: 96%; Preventive Activity on Liver Disorder: GOT [3, 6]: 137 IU/L; Preventive Activity on Liver Disorder: GOT Prevention Rate [3, 6]: 100%; Preventive Activity on Liver Disorder: GPT [3, 6]: 61 IU/L; Preventive Activity on Liver Disorder: GPT Prevention Rate [3, 6]: 86%; Repeated oral administration toxicity (death, toxicological symptoms) [4]: neither death nor any toxicological symptoms were observed

Q: Which IC50 [1] does the source give for Cc1c(C)c2c(c(C)c1O)CCC(C)(CCC(=O)Nc1ccc(-n3ccnc3)cc1)O2 (racemic) [3-5] here?
A: 1300 nM

Q: Cc1cc(C(C)(C)C)c(O)c(C(C)(C)C)c1 [BHT, 2,6-t-Dibutyl-p-cresol, reference compound] was tested. Which IC50 [1] did it give?
A: 2200 nM

Q: How did the IC50 [1] turn out when CC(=O)Oc1c(C)c(C)c2c(c1C)CC(C)(C(=O)Nc1ccc(-n3ccnc3)cc1)O2 (racemic) [3-13] was run?
A: 2800 nM

Q: Which “Serum lipids reduction rate comparing to Control group (%), Means of 3 animals: Total cholesterol” value ([2]; dose 25 mg/kg) does the source give for O=C(CCc1cccnc1)Nc1ccc(-n2ccnc2)cc1 [4-90] here?
A: 22%

Q: And the “Serum lipids reduction rate comparing to Control group (%), Means of 3 animals: Triglyceride” value ([2]; dose 25 mg/kg)?
A: 36%

Q: How did the “Serum lipids reduction rate comparing to Control group (%), Means of 3 animals: Total cholesterol” value ([2]; dose 12.5 mg/kg) turn out when O=C(Nc1ccc(-n2ccnc2)cc1)c1ccccn1 [4-24] was run?
A: 30%

Q: And the “Serum lipids reduction rate comparing to Control group (%), Means of 3 animals: Triglyceride” value ([2]; dose 12.5 mg/kg)?
A: 25%

Q: What does the source list for Cc1cc(=O)oc2cc(OCC(=O)Nc3ccc(-n4ccnc4)cc3)ccc12 [4-88]?
A: Serum lipids reduction rate comparing to Control group (%), Means of 3 animals: Total cholesterol ([2]; dose 25 mg/kg): 39%; Serum lipids reduction rate comparing to Control group (%), Means of 3 animals: Triglyceride ([2]; dose 25 mg/kg): 53%

Q: How did the “Serum lipids reduction rate comparing to Control group (%), Means of 3 animals: Total cholesterol” value ([2]; dose 25 mg/kg) turn out when O=C(Nc1ccc(-n2ccnc2)cc1)c1cc2cc(Cl)ccc2[nH]1 [Compound No. 4-8] was run?
A: 37%

Q: What about the “Serum lipids reduction rate comparing to Control group (%), Means of 3 animals: Triglyceride” value ([2]; dose 25 mg/kg) of the same molecule?
A: 73%

Q: With CC(C)(C)c1cc(C(=O)Nc2ccc(-n3ccnc3)cc2)[nH]n1 [4-16] as the molecule, how does the “Serum lipids reduction rate comparing to Control group (%), Means of 3 animals: Total cholesterol” value ([2]; dose 25 mg/kg) read?
A: 34%

Q: And the “Serum lipids reduction rate comparing to Control group (%), Means of 3 animals: Triglyceride” value ([2]; dose 25 mg/kg)?
A: 34%

Q: O=C(Nc1ccc(-n2ccnc2)cc1)c1ccc(Cl)nc1 [4-25] was tested. Which “Serum lipids reduction rate comparing to Control group (%), Means of 3 animals: Total cholesterol” value ([2]; dose 12.5 mg/kg) did it give?
A: 25%

Q: And the “Serum lipids reduction rate comparing to Control group (%), Means of 3 animals: Triglyceride” value ([2]; dose 12.5 mg/kg)?
A: 52%

Q: What does the source list for O=C(CCOC1CCOC1)Nc1ccc(-n2ccnc2)cc1 (centres unmarked) [4-104]?
A: Serum lipids reduction rate comparing to Control group (%), Means of 3 animals: Total cholesterol ([2]; dose 25 mg/kg): 25%; Serum lipids reduction rate comparing to Control group (%), Means of 3 animals: Triglyceride ([2]; dose 25 mg/kg): 38%
